This is an account of results in paper PMC3345971 (Bioorganic & medicinal chemistry, 2012).

The test system of test [1] is DAT. Particulars: cited from earlier work; for IC50: read-out: DAT IC50, oxatropenes substituted at the C3 position.
Test [2] has as its system SERT. Conditions: cited from earlier work.
In test [3] the target is human dopamine transporter (hDAT) (Macaca fascicularis, UniProt Q9GJT6). Put plainly: Inhibition of [3H]WIN35,428 binding to the dopamine transporter. Conditions: DAT over SERT.
human dopamine transporter (hDAT), sequence (Q9GJT6 whole entry): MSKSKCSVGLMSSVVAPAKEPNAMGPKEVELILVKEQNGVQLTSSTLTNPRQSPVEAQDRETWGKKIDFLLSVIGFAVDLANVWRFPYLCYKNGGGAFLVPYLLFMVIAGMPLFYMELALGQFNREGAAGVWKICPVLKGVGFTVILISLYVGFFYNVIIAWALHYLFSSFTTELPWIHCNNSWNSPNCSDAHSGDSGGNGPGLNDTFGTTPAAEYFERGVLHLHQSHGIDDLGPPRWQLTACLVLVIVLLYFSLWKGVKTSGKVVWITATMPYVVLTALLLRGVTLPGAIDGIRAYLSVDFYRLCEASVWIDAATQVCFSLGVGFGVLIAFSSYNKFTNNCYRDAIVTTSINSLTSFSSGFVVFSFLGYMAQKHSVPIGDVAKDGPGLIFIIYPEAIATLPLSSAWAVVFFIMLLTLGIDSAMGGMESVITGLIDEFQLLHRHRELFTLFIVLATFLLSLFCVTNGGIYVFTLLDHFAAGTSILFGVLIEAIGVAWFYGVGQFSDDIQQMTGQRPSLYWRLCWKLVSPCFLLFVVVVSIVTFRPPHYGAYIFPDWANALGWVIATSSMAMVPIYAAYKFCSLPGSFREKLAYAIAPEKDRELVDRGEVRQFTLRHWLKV

By IC50 is commonly meant the concentration that gives 50% inhibition. As for `COC(=O)C1=C(c2ccc3cc4ccccc4cc3c2)CC2CCC1O2` (centres unmarked) [oxatropene with 2-anthracenyl], in test [1], the IC50 is over 40000 nM.

With “2β-carbomethoxy-3β-(2-naphthyl)-8-aza-bicyclo[3.2.1]octanes”, the “inhibition of SERT” value in test [2] was 2.19 nM. Besides, in test [1], the “inhibition of DAT” value is recorded as 0.49 nM.

With “(R,S)-3-[2-Benzothiophen-2-yl] -8-oxa-bicyclo[3.2.1]oct-2-ene-2carboxylic acid methyl ester [14m]”, the “selectivity for DAT vs. SERT” value in test [3] was 177 fold.

On to `COC(=O)C1=C(c2ccc3ccccc3c2)CC2CCC1O2` (centres unmarked) [oxatropene with 2-naphthyl], for which the IC50 in test [1] was 20 nM.

Regarding “2β-Carbomethoxy-3 β-[2-furylphenyl]-8-azabicyclo[3.2.1]tropane”, the SERT binding in test [2] (reported by Tamagnan et al) is given as 0.15 nM. Moreover, the DAT binding in test [1] (reported by Tamagnan et al) is given as 3.76 nM.

In the case of `COC(=O)C1=C(c2cccc3ccccc23)CC2CCC1O2` (centres unmarked) [oxatropene with 1-naphthyl], the IC50 in test [1] was 1720 nM.
